# Laboratory results from US7073512B2, “Adhesion prevention and an endoscopic insufflation system therefor” (Saturnus AG, priority 1997, dated 2006).
# Tested on: adhesion formation
# Assay: Adhesion formation after CO2 laser injury under CO2 or CO2/O2 pneumoperitoneum, scored at second-look laparoscopy after one week
# Format: in vivo, New Zealand white rabbits
# Set-up: key to Mean total adhesion score: sum of extent (0-4), type (0-3), tenacity (0-3), inflammation (0-3)
# Protocol: All animals received two standard CO2 laser injuries. A non opposing lesion was inflicted in the retro-uterine space, i.e. on the posterior utero-vaginal wall, consisting of a 2 cm^2; vaporization of the superficial layers with CO2 laser. In addition, an apposing lesion was performed in the oviduct and pelvic side wall, consisting of a 2 cm^2 vaporization, on both sides. The time required to induce the lesions varied from 3 to 7 minutes.
# Animals were assigned randomly on a daily base, to one of the following seven experimental groups. First and second groups were considered control groups. In group 1, using conventional CO2 pneumoperitoneum, the total duration of the procedure was restricted to 10 minutes.
# Adhesions were evaluated by laparoscopy after one week. All second look laparoscopies were videotaped, and subsequently scored blindly by two investigators, taking into account extent (0 to 4 points), type (0 to 3 points), tenacity (0 to 3 points) and inflammatory reaction (0 to 3 points) at the injury and at de-novo siteds.
# Sixty five New Zealand white rabbits weighing between 2150 and 3000 grams were operated with a standard 3 puncture laparoscopy. Standard surgical injuries were inflicted with CO2 laser (Sharplan 1060: Sharplan, Tel Aviv, Israel) with a spot diameter of 1 mm and a power setting of 10 watts in the continuous superpulse mode. […] The output of both insufflators was mixed in a mixing chamber, humidified and warmed. The insufflation pressure was 10 cm of water and the intra-abdominal flow rate 20 l/min. It is obvious that all means in contact with O2 are adapted therefor.
SMILES,"P of difference in total adhesion score versus control group with 100% CO2 (Group 2, 60′ CO2) (10′ CO2 (group 1))","Mean total adhesion score (group 1: pure CO2 pneumoperitoneum, procedure restricted to 10 minutes)",Mean total adhesion score (group 2: pure CO2 pneumoperitoneum maintained 70 minutes),"Increase of adhesion scores, 60 min exposure in comparison with 10 min exposure (pure CO2, 60 min vs 10 min) [fold]","P of difference in total adhesion score versus control group with 100% CO2 (Group 2, 60′ CO2) (60′ 2.5% O2 (group 4))","P of difference in total adhesion score versus control group with 100% CO2 (Group 2, 60′ CO2) (60′ 5% O2 (group 5))","P of difference in total adhesion score versus control group with 100% CO2 (Group 2, 60′ CO2) (60′ 10% O2 (group 6))","P of difference in total adhesion score versus control group with 100% CO2 (Group 2, 60′ CO2) (60′ 20% O2 (group 7))",P of decrease in total adhesion score with the addition of O2 (de novo adhesions around the opposite tube),"Adhesiogenic effect of CO2 (from a final concentration of 5% oxygen onwards, together with CO2)","Mean total adhesion score (group 3: CO2 with 1% O2, pneumoperitoneum 70 minutes)","Mean total adhesion score (group 5: CO2 with 5% O2, pneumoperitoneum 70 minutes)","Mean total adhesion score (group 6: CO2 with 10% O2, pneumoperitoneum 70 minutes)","Mean total adhesion score (group 7: CO2 with 20% O2, pneumoperitoneum 70 minutes)",Amount of adhesions (increasing concentrations of oxygen in CO2 pneumoperitoneum),P of decrease in total adhesion score with the addition of O2 (non opposing lesion in the pouch of Douglas),P of decrease in total adhesion score with the addition of O2 (opposing lesion in tube/side wall)
"O=C=O [CO2, carbon dioxide, reference compound]",P = 0.0002,4.5±3.7,17.5±6.7,4,–,–,–,–,–,–,–,–,–,–,–,–,–
"O=O [O2, oxygen]",–,–,–,–,P = 0.05,P = 0.0005,P = 0.007,P = 0.005,0.0001,completely abolished,15.8±5.2,5.3±3.8,6.6±4.4,6.3±2.5,decreased progressively,0.0002,0.0014
